What was measured:
Assay type in all cases: functional
Malme-3M = assay: Growth inhibition of human MALME-3M cells after 48 hrs by sulforhodamine B assay
MDA-MB-468 = assay: Growth inhibition of human MDA-MB-468 cells after 48 hrs by sulforhodamine B assay; conditions: MDA-MB-468, 48 h
NCI-H226 = assay: Growth inhibition of human NCI-H226 cells after 48 hrs by sulforhodamine B assay; conditions: NCI-H226, 48 h
HCT-15 = assay: Growth inhibition of human HCT15 cells after 48 hrs by sulforhodamine B assay; conditions: HCT-15, 48 h
T47D = assay: Growth inhibition of human T47D cells after 48 hrs by sulforhodamine B assay
COLO 205 = assay: Growth inhibition of human COLO205 cells after 48 hrs by sulforhodamine B assay; conditions: COLO 205, 48 h
PC-3 = assay: Growth inhibition of human PC3 cells after 48 hrs by sulforhodamine B assay; conditions: PC-3, 48 h
UACC-62 = assay: Growth inhibition of human UACC62 cells after 48 hrs by sulforhodamine B assay; conditions: UACC-62, 48 h
DU-145 = assay: Growth inhibition of human DU145 cells after 48 hrs by sulforhodamine B assay; conditions: DU-145, 48 h
TK-10 = assay: Growth inhibition of human TK10 cells after 48 hrs by sulforhodamine B assay; conditions: TK-10, 48 h
HOP-62 = assay: Growth inhibition of human HOP62 cells after 48 hrs by sulforhodamine B assay; conditions: HOP-62, 48 h
HT-29 = assay: Growth inhibition of human HT-29 cells after 48 hrs by sulforhodamine B assay; conditions: HT-29, 48 h
UO-31 = assay: Growth inhibition of human UO31 cells after 48 hrs by sulforhodamine B assay; conditions: UO-31, 48 h
KM12 = assay: Growth inhibition of human KM12 cells after 48 hrs by sulforhodamine B assay; conditions: KM12, 48 h
UACC-257 = assay: Growth inhibition of human UACC257 cells after 48 hrs by sulforhodamine B assay; conditions: UACC-257, 48 h
NCI-H460 = assay: Growth inhibition of human NCI-H460 cells after 48 hrs by sulforhodamine B assay; conditions: NCI-H460, 48 h
M14 = assay: Growth inhibition of human M14 cells after 48 hrs by sulforhodamine B assay; conditions: M14, 48 h
SNB-75 = assay: Growth inhibition of human SNB75 cells after 48 hrs by sulforhodamine B assay; conditions: SNB-75, 48 h
786-0 = assay: Growth inhibition of human 786-0 cells after 48 hrs by sulforhodamine B assay; conditions: 786-0, 48 h
HOP-92 = assay: Growth inhibition of human HOP92 cells after 48 hrs by sulforhodamine B assay; conditions: HOP-92, 48 h
MOLT-4 = assay: Growth inhibition of human MOLT4 cells after 48 hrs by sulforhodamine B assay; conditions: MOLT-4, 48 h
ACHN = assay: Growth inhibition of human ACHN cells after 48 hrs by sulforhodamine B assay
K562 = assay: Growth inhibition of human K562 cells after 48 hrs by sulforhodamine B assay; conditions: K562, 48 h
SN12C = assay: Growth inhibition of human SN12C cells after 48 hrs by sulforhodamine B assay
NCI-H322M = assay: Growth inhibition of human NCI-H322M cells after 48 hrs by sulforhodamine B assay
SF-295 = assay: Growth inhibition of human SF295 cells after 48 hrs by sulforhodamine B assay; conditions: SF-295, 48 h
NCI/ADR-RES = assay: Growth inhibition of human NCI/ADR-RES cells after 48 hrs by sulforhodamine B assay
[1] = read-out: pLC50 (the source's name) (converted)

## COCOc1cc(/C=C/c2cc(CO)c3c(c2)C[C@@H]2C(C)(C)[C@H](O)CC[C@@]2(C)O3)cc(OC)c1C/C=C(\C)CCC=C(C)C
Malme-3M
  GI50: 11.7 µM
  LC50: > 100 µM
Malme-3M; read-out: pTGI (converted)
  TGI: 67.6 µM
MDA-MB-468
  GI50: 1.78 µM
  LC50: 49 µM
MDA-MB-468; read-out: pTGI (converted)
  TGI: 12.3 µM
NCI-H226
  GI50: 14.5 µM
  LC50: 64.6 µM
NCI-H226; read-out: pTGI (converted)
  TGI: 30.2 µM
HCT-15
  GI50: 1.35 µM
  LC50: 81.3 µM
HCT-15; read-out: pTGI (converted)
  TGI: 10.2 µM
T47D
  GI50: 11.5 µM
  LC50: > 100 µM
T47D; read-out: pTGI (converted)
  TGI: 49 µM
COLO 205
  GI50: 3.55 µM
  LC50: 66.1 µM
COLO 205; read-out: pTGI (converted)
  TGI: 14.1 µM
PC-3
  GI50: 0.912 µM
PC-3; [1]
  CC50: > 100 µM
PC-3; read-out: pTGI (converted)
  TGI: > 100 µM
UACC-62
  GI50: 0.55 µM
  LC50 (50% lethal concentration): 57.5 µM
UACC-62; read-out: pTGI (converted)
  TGI: 10.7 µM
DU-145
  GI50: 3.8 µM
  LC50: 52.5 µM
DU-145; read-out: pTGI (converted)
  TGI: 20 µM
TK-10
  GI50: 15.8 µM
  LC50: > 100 µM
TK-10; read-out: pTGI (converted)
  TGI: 41.7 µM
HOP-62
  GI50: 0.537 µM
  LC50: 64.6 µM
HOP-62; read-out: pTGI (converted)
  TGI: 11 µM
HT-29
  GI50: 2.04 µM
  LC50 (concentration killing 50% of cells): > 100 µM
HT-29; read-out: pTGI (converted)
  TGI: 19.1 µM
UO-31
  GI50: 0.501 µM
  LC50: 93.3 µM
UO-31; read-out: pTGI (converted)
  TGI: 15.1 µM
KM12
  GI50: 4.27 µM
  LC50: 57.5 µM
KM12; read-out: pTGI (converted)
  TGI: 21.4 µM
UACC-257
  GI50: 3.47 µM
  LC50: > 100 µM
UACC-257; read-out: pTGI (converted)
  TGI: 39.8 µM
NCI-H460
  GI50: 0.871 µM
  LC50 (concentration killing 50% of cells): > 100 µM
NCI-H460; read-out: pTGI (converted)
  TGI: > 100 µM
M14
  GI50: 0.692 µM
  LC50: > 100 µM
M14; read-out: pTGI (converted)
  TGI: 21.9 µM
SNB-75
  GI50: 0.263 µM
  LC50: > 100 µM
SNB-75; read-out: pTGI (converted)
  TGI: 14.8 µM
786-0
  GI50: 0.158 µM
786-0; [1]
  CC50: 8.32 µM
786-0; read-out: pTGI (converted)
  TGI: 0.912 µM
HOP-92
  GI50: 2.57 µM
  LC50: 45.7 µM
HOP-92; read-out: pTGI (converted)
  TGI: 16.6 µM
MOLT-4
  GI50: 0.398 µM
  LC50: > 100 µM
MOLT-4; read-out: pTGI (converted)
  TGI: > 100 µM
ACHN
  GI50: 2.24 µM
  LC50: > 100 µM
ACHN; read-out: pTGI (converted)
  TGI: 50.1 µM
K562
  GI50: 2.51 µM
  LC50: > 100 µM
K562; read-out: pTGI (converted)
  TGI: 28.8 µM
SN12C
  GI50: 6.61 µM
  LC50: 58.9 µM
SN12C; read-out: pTGI (converted)
  TGI: 22.4 µM
NCI-H322M
  GI50: 22.4 µM
  LC50: > 100 µM
NCI-H322M; read-out: pTGI (converted)
  TGI: 91.2 µM
SF-295
  LC50: 33.9 µM
SF-295; read-out: GI50
  GI50: 0.15 µM
SF-295; read-out: pGI50 (converted)
  GI50: 0.151 µM
SF-295; read-out: pTGI (converted)
  TGI: 0.501 µM
NCI/ADR-RES
  GI50: 8.13 µM
  LC50: 95.5 µM
NCI/ADR-RES; read-out: pTGI (converted)
  TGI: 29.5 µM

Source: ChEMBL document CHEMBL1926642, “Relevance of the C-5 position to schweinfurthin induced cytotoxicity” (2011)
